Results taken from patent publication US20250352675A1, “CA-IX TARGETING FLUORESCENT PROBES” (BRACCO IMAGING S.P.A., priority 2022, published 2025).
Like-named read-outs stand apart in the source and are kept apart here. One block for each compound: values may come before it.

Assays:
[1] = target: T1, recombinant bovine CAII enzyme (bCAII) (Bos taurus, UniProt P00921); experiment: Dansylamide (DNSA) displacement fluorescence assay on carbonic anhydrase catalytic site; type: binding
T1 construct: purchased Sigma-Aldrich; host or cells: E. coli
T1 sequence (P00921 whole entry): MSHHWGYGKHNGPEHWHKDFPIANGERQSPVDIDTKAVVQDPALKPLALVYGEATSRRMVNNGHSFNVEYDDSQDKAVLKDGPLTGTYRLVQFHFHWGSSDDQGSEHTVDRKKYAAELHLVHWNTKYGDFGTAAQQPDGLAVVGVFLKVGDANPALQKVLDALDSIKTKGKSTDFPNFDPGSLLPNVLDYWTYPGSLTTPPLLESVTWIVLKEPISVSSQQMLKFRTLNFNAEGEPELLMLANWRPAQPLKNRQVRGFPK
Protocol: The binding affinity of the compounds of formula (I) to Carbonic Anhydrase (CA) catalytic site was determined to assess the targeting efficacy of the molecular vectors, even after labeling the targeting ligand with the fluorescent portion of the probe.
Such enzyme in fact is highly available and has a catalytic site with high degree of homology in different carbonic anhydrase isoforms (Aggarwal M. et al., J Enzyme Inhib Med Chem 2013; 28(2): 267-277).
The dissociation constant (Ko) of compounds of formula (I) for bCAII was estimated by performing a fluorescence-based assay, exploiting the drop of fluorescence deriving from the displacement of carbonic anhydrase-bound dansylamide (DNSA) in presence of competitors and was adapted for application in 96-well plates from Wang S C et al., Biochem Mol Biol Educ. 2006, 34(5): 364-368. […] In both cases DNSA is excited at about 320 nm. Thus, excitation of carbonic anhydrase aromatic residues (Trp) at 285 nm generates an emission at 340 nm, that is quenched in presence of bound DNSA. The quenching occurs by FRET (fluorescence resonance energy transfer) to bound DNSA, which is in turn excited, emitting at 460 nm.
Molecules that bind to CA in the same binding site of DNSA, such as sulfonamides or derivatives, competitively displace DNSA from CA. The degree of displacement is function of the affinity of competitors and can be followed through the drop of fluorescence at 460 nm.
In detail, 5-(Dimethylamino)-1-naphthalenesulfonamide (dansylamide, DNSA, Sigma-Aldrich 218898) was reconstituted in 20 mM Tris pH 8, aliquoted and stored at −20° C.; bCAII (recombinant, expressed in E. Coli, Sigma-Aldrich) was divided in aliquots and stored at −20° C.
DNSA fluorescence emission at 462 nm from each well was recorded after excitation at 285 nm (Trp wavelength of excitation) and consequent selective excitation of DNSA bound to bCAII by FRET. Fractional saturation of bCAII was experimentally determined through normalization of fluorescence data between 1 (no compounds) and 0 (maximal DNSA displacement by presence of binding competitors), according to the equation below: […]
where r is fractional saturation, FLobs is the recorded fluorescence intensity, FLmin is the fluorescence intensity recorded at maximal concentration of compounds, and FLmax is fluorescence recorded in absence of compounds.
The KD of CA-binding compounds (=KDcomp) was then derived by mathematical fitting of experimental data according to the equation: […]
Mathematical fitting was performed using Microsoft Excel Solver.
All compounds were tested in triplicate.

HT-29 tumor = experiment: Ex vivo tumor-to-background ratio in excised HT-29 tumors; set-up: species or system mice; settings: 1 nmol/mouse, samples collected 24 hours after administration; tumor vs hind limb muscle
Protocol: (§1) The ex vivo biodistribution of the representative compounds 1, 2 and 3 and of the reference compound HF-1 (at 1 nmol/mouse) was evaluated in HT-29 excised tumors and tissues at the end of the in vivo OI sessions 24 hours post intravenous administration. At the end of the in vivo experiment, animals were euthanized by overdose of gaseous anesthesia followed by cervical dislocation. Tumor tissue, muscle, and other organs of interest were removed for ex vivo fluorescent signal measurements. The fluorescence signal intensity was measured by the IVIS Spectrum system. Regions of interest (ROIs) were drawn around each organ and tumor using the Living Image Software (PerkinElmer) and evaluating signal intensity in the tissues (expressed as Average Radiant Efficiency). The ratio between the fluorescence signal in the organs and tumor was then calculated to assess the contrast to hind limb muscle (representing the background).

[2] = Optical characterization (excitation/emission maxima, molar extinction coefficient); type: physicochemical; settings: in water
[3] = Ex vivo biodistribution, organ-to-muscle ratio; type: in vivo, mice; settings: 1 nmol/mouse, 24 hours after administration
Protocol: as §1
Moreover, FIG. 6 (b) and Table VIII show the accumulation and distribution of the fluorescent probes in the dissected organs, reporting the ex vivo values of organs-to-muscle ratio from samples collected at 24 hours after the administration of representative compounds 1, 2 and 3 and of the reference compound HF-1 (1 nmol/mouse).

[4] = Optical characterization (excitation/emission maxima, molar extinction coefficient); type: physicochemical
Protocol: A dual-beam UV-VIS spectrophotometer (Lambda 40, Perkin Elmer) was used to determine the absorbance (Abs) of the compounds of the invention. Emission/excitation (Em/Ex) spectra were carried out on a spectrofluorometer (FluoroLog-3 1IHR-320, Horiba Jobin Yvon) equipped with an F-3018 integrating sphere accessory. The measurements were performed using an excitation wavelength at maximum absorbance of different dyes, and the sample was excited with a 450W Xenon Light Source. Detection was performed by photomultiplier tubes (PMT-NIR) cooled detector or by TBX-04 detector. Dye solutions were carefully prepared to have an absorbance lower than 0.1 (optical densities) to minimize re-absorption phenomena.
The compounds of the invention were characterized in terms of their optical properties in vitro in aqueous medium (i.e., water/PBS pH 7.4) and in a clinical chemistry control serum (Seronorm, Sero S A), mimicking the chemical composition and optical properties of human serum. All solutions were freshly prepared. In particular, the compounds of the invention are characterized by absorption maxima comprised in the range from about 750 nm to 780 nm.
The excitation and emission maxima in PBS and Seronorm and the molar extinction coefficient (E) in water of representative compounds of formula (I) are shown in Table I in comparison with the known CA-IX targeting fluorescent probe named Hypoxyfluor-1 (HF-1, for instance disclosed in Bioconjugate Chem 2018, 29, 3320-3331). […] Moreover, the extinction coefficients were higher than […] for all compounds.

CA-IX = target: T2, CA-IX (Homo sapiens, UniProt Q16790); experiment: Cellular binding assessment by flow cytometry on CA-IX expressing HT-29 cells; settings: 1 hour 30 min on ice, read-out: CA-IX receptor affinity (KD, to HT-29 cells)
T2 construct: host or cells: HT-29 human colorectal adenocarcinoma cells
Protocol: Human colon adenocarcinoma HT-29 cells (ATCC) used for the cellular binding experiments were cultured in McCoy's 5A medium (Sigma-Aldrich), supplemented with 10% HyClone Fetal Clone III (Euroclone), 2 mM L-glutamine (Sigma-Aldrich), 100 IU/mL penicillin, 0.1 mg/mL streptomycin, 0.25 μg/mL amphotericin B (Antibiotic-Antimycotic solution, Life Technologies) and cells were grown at 37° C. in humidified atmosphere enriched with 5% CO2. DPBS without MgCl2 and CaCl2 (Sigma-Aldrich) was used for cell rinsing.
Indeed, by using the anti-human CA-IX antibody MAB2188 (R&D Systems) and the DAKO […], according to the instruction of the datasheet, HT-29 cells were estimated to express about 150,000 CA-IX molecules per cell. Thus, HT-29 cells were used to measure the binding of all compounds to CA-IX, expressed in its physiological environment at the cell-surface. Briefly, HT-29 cells were detached with StemPro® Accutase® Cell Dissociation Reagent (Life Technologies), collected in DPBS and counted. At least 2·10^5 cells were placed in 1.5 mL tubes on ice and resuspended in 50-100 μL of cold FACS buffer (eBioscience™ Flow Cytometry Staining Buffer, Invitrogen) containing scalar concentrations of compounds (compound 1: range 1-5 μM; compounds 2 and 3: range 0-20 μM). After incubation (1 hour and 30 min on ice in the dark), cells were rinsed 3 times in 300 μL of cold FACS buffer by centrifugation (5 min, 4° C., 350 RCF), discarding the supernatant. Cell pellets were then resuspended in 200 μL of cold FACS buffer (or in a suitable volume in order to obtain no more than 1000 recorded events per μL during FACS analysis) and analyzed with the flow cytometer Accuri™ C6 (BD Biosciences). The mean cell-associated fluorescence was plotted against concentration and the dissociation constant at equilibrium (Ko) was inferred by mathematical fitting with GraphPad Prism v.9 software, according to the following equation: […]
where Bmax is the maximum specific binding in the same units as Y. KD is the equilibrium dissociation constant, in the same units as X. NS is the slope of nonspecific binding in Y units divided by X units. Background is the amount of nonspecific binding with no added Compound.
All compounds were analyzed in at least three independent experiments. The calculated KD are summarized in Table III and compared with the one obtained for HF-1.

[5] = injection into the patient; cited from earlier work

Kd ([1]; previously experimentally determined, read-out: dissociation constant at equilibrium of DNSA (KDDNSA)): 170 nM
Compound: CN(C)c1cccc2c(S(N)(=O)=O)cccc12 [DNSA, 5-(Dimethylamino)-1-naphthalenesulfonamide, reference compound]

Kd ([1]; 0.25 μM bCAII, 5 μM DNSA, 20 mM Tris pH 8, triplicate, read-out: CAII receptor affinity (KD)): 9.5 ± 1 nM | molar extinction coefficient (ε) [2]: 255000 M⁻¹ cm⁻¹ | Organ-to-muscle ratio, intestine [3]: 2.2 ± 1.3 | Organ-to-muscle ratio, kidney [3]: 2.4 ± 0.3 | Organ-to-muscle ratio, liver [3]: 5.7 ± 0.2 | Organ-to-muscle ratio, skin [3]: 1.4 ± 0.0 | Organ-to-muscle ratio, spleen [3]: 1.4 ± 0.3 | Organ-to-muscle ratio, stomach [3]: 4.0 ± 1.7 | Max Em ([4]; PBS pH 7.4): 798 nm | Max Ex ([4]; PBS pH 7.4): 772 nm | Max Em ([4]; Seronorm): 808 nm | Max Ex ([4]; Seronorm): 792 nm | Kd (CA-IX): 115 ± 8 nM
Compound: CC1(C)C(/C=C/C2=C(Oc3ccc(CCC(=O)NCCCCCCCC(=O)Nc4nnc(S(N)(=O)=O)s4)cc3)C(=C/C=C3/N(CCCCS(=O)(=O)O)c4ccc(S(=O)(=O)O)cc4C3(C)C)/CCC2)=[N+](CCCCS(=O)(=O)[O-])c2ccc(S(=O)(=O)O)cc21 [HF-1, reference compound]
ex vivo TBR ± SD, HT-29 tumor (HT-29 tumor): 3.1 ± 0.3

Compound: ^124I-cG250: chimeric version of monoclonal antibody G250 labelled with the radionuclide 124I
time after injection to reach tumor/blood ratios suitable for imaging [5]: 2 to 7 days
